One experiment has as its target PI3K delta (Homo sapiens, UniProt O00329). Briefly: Enzymatic PI3K delta isoform inhibition (lipid kinase activity, Kinase-Glo). The experiment is classed as biochemical. Also on record: for the full-length p110-d subunit are generated and fused by overlapping PCR; His tag (C); made in house; host or cells: baculovirus; Tn5 (Trichoplusia ni) or TiniPro insect cells. The conditions noted are these: Enzymatic Assay. On the procedure: (§1) 1 Determination of Enzymatic PI3K Alpha and PI3K Delta Isoform Inhibition
(§2) 1.1 Test of Lipid Kinase Activity
(§3) The kinase reaction is performed in a final volume of 50 μl per well of a half area COSTAR, 96 well plate. The final concentrations of ATP and phosphatidyl inositol in the assay are 5 μM and 6 μg/mL, respectively. The reaction is started by the addition of PI3 kinase, e.g. PI3 kinase δ.
(§4) p110δ. The components of the assay are added per well as follows: • 10 μl test compound in 5% DMSO per well in […]. • Total activity is determined by addition 10 μl of 5% vol/vol DMSO in the first 4 wells of column 1 and the last 4 wells of column 12. • The background is determined by addition of 10 μM control compound to the last 4 wells of column 1 and the first 4 wells of column 12. • 2 mL ‘Assay mix’ are prepared per plate: • 1.912 mL of HEPES assay buffer • 8.33 μl of 3 mM stock of ATP giving a final concentration of 5 μM per well • 1 μl of [^33P]ATP on the activity date giving 0.05 μCi per well • 30 μl of 1 mg/mL PI stock giving a final concentration of 6 μg/mL per well • 5 μl of 1 M stock MgCl2 giving a final concentration of 1 mM per well • 20 μl of the assay mix are added per well. • 2 mL ‘Enzyme mix’ are prepared per plate (x* μl PI3 kinase p110β in 2 mL of kinase buffer). The ‘Enzyme mix’ is kept on ice during addition to the assay plates. The volume of enzyme is dependent on the enzymatic activity of the batch in use. • 20 μl ‘Enzyme mix’ are added/well to start the reaction. • The plate is then incubated at room temperature for 90 minutes. • The reaction is terminated by the addition of 50 μl WGA-SPA bead (wheat germ agglutinin-coated Scintillation Proximity Assay beads) suspension per well. • The assay plate is sealed using TopSeal-S (heat seal for polystyrene microplates, PerkinElmer LAS [Deutschland] GmbH, Rodgau, Germany) and incubated at room temperature for at least 60 minutes. • The assay plate is then centrifuged at 1500 rpm for 2 minutes using the Jouan bench top centrifuge (Jouan Inc., Nantes, France). • The assay plate is counted using a Packard TopCount, each well being counted for 20 seconds.
(§5) The final concentrations of ATP and phosphatidyl inositol (PI) in the assay are 1 μM and 10 μg/mL, respectively. The reaction is started by the addition of ATP.
(§6) The components of the assay are added per well as follows:
(§7) IC50 is determined by a four parameter curve fitting routine that comes along with “excel fit”.
(§8) To start the reaction, 10 μl of 10 nM PI3 kinase and 5 μg/mL 1-alpha-phosphatidylinositol (PI) are added into each well followed by 10 μl of 2 μM ATP. The reaction is performed until approx 50% of the ATP is depleted, and then stopped by the addition of 20 μl of Kinase-Glo solution (Promega Corp., Madison, Wis., USA). The stopped reaction is incubated for 5 minutes and the remaining ATP is then detected via luminescence. IC50 values are then determined.
For orientation: Kinase-Glo reads ATP consumption through a luciferase reaction.

Another experiment addresses T1, PI3K alpha (Homo sapiens, UniProt P42336).
T1 construct: His tag (C); made in house; host or cells: baculovirus; Tn5 (Trichoplusia ni) or TiniPro insect cells
Put plainly: Enzymatic PI3K alpha isoform inhibition (lipid kinase activity, Kinase-Glo). The experiment is classed as biochemical. The conditions noted are these: Enzymatic Assay. The procedure: as §1, §2, §3, §4, §5, §6, §7, §8

Drawing on US9949979B2, “Use of inhibitors of the activity or function of PI3K” (NOVARTIS AG, priority 2011, dated 2018), this text covers IC50 for six compounds.

What is called IC50 is the point on the concentration scale where inhibition reaches its midpoint. The low end stands for greater potency, the high end for weaker potency.

Sequence of PI3K delta (O00329 with tags, fused parts or gaps limits assumed): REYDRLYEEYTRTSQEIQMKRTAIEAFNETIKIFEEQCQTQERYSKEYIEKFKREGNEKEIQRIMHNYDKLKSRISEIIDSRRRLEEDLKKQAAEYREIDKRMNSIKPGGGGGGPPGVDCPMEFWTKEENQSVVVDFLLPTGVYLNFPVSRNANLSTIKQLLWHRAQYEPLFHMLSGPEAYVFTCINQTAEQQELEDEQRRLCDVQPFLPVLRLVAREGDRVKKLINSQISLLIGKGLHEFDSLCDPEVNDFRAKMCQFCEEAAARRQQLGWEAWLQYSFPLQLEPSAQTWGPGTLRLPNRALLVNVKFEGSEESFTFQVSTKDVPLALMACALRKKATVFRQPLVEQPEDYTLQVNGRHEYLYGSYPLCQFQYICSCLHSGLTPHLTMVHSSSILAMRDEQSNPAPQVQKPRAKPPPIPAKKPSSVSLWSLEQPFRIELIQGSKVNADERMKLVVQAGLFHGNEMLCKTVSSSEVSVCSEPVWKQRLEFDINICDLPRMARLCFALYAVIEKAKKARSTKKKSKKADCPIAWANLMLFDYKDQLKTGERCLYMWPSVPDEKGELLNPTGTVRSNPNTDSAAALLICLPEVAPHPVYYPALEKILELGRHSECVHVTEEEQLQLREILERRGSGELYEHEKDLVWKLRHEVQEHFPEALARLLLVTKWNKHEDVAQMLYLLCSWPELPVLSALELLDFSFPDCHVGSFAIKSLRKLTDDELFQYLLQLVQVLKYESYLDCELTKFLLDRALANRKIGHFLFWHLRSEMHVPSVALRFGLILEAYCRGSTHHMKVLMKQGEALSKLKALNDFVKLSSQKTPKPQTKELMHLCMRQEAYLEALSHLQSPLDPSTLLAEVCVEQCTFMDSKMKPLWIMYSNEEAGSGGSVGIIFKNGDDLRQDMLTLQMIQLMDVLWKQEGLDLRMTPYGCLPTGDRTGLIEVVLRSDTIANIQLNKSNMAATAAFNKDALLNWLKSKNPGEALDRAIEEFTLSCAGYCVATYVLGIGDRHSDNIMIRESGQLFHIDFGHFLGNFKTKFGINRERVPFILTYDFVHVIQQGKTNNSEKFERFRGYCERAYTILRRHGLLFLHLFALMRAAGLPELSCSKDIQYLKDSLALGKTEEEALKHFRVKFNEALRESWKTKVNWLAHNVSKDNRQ
T1 sequence (P42336 with tags, fused parts or gaps limits assumed): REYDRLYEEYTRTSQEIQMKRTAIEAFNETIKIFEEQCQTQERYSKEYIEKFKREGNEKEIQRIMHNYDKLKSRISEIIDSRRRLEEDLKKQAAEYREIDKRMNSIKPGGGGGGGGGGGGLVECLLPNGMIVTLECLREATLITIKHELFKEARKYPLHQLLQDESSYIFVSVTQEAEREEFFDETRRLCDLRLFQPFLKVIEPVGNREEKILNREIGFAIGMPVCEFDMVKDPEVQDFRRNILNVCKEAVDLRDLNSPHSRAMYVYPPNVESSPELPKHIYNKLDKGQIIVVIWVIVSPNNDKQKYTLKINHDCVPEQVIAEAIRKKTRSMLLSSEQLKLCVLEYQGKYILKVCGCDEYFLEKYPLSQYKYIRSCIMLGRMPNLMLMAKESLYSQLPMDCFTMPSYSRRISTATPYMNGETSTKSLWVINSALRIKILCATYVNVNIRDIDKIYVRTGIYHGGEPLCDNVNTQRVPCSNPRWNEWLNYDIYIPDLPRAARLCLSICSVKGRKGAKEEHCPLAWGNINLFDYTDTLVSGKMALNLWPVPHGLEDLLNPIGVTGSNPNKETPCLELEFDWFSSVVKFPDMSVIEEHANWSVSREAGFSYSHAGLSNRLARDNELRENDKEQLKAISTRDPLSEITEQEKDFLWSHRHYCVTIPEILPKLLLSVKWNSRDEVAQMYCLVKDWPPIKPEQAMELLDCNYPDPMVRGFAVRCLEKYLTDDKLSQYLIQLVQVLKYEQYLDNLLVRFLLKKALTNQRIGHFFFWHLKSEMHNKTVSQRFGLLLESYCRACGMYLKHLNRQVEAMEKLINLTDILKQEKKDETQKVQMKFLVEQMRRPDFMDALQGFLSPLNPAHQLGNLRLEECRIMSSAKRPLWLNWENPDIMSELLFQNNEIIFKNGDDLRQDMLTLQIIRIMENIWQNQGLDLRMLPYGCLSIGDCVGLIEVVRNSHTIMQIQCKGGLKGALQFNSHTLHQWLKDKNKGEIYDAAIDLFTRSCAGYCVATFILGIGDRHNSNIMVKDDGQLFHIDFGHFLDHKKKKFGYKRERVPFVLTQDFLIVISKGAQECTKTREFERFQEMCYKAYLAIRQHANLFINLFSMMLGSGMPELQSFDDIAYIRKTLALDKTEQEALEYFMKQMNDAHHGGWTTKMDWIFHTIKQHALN

For the compound `CC1(C)CN(C(=O)c2cncc(-c3ncnc4ccc(-c5cnc(N)nc5)cc34)c2)CCO1` [65′], the IC50 came to 10 nM against PI3K delta and 640 nM at PI3K alpha.
The like results for `CC(=O)N1CCN(C(=O)c2cccc(-c3ncnc4ccc(-c5ccc(C)nc5)cc34)c2)CC1` [6′] were, in that order, 8.62 nM and 589 nM.
With `COc1ccc(-c2ccc3ncnc(-c4cccc(C(=O)N5CCNC(C)(C)C5)c4)c3c2)cn1` [88′], the IC50 on PI3K delta is at most 2.67 nM.
Consider `Cc1ccc(-c2ccc3ncnc(-c4cccc(C(=O)N5CCN(C)CC5)c4)c3c2)cn1` [19′], for which the IC50 worked out at 11.5 nM against PI3K delta and 678 nM on PI3K alpha.
`COc1ccc(-c2ccc3ncnc(-c4cccc(C(=O)N5CCN(C(C)=O)CC5)c4)c3c2)cc1C(F)(F)F` [9′]: the IC50 against PI3K delta is 10 nM; at PI3K alpha, 1400 nM.
Take `COc1ccc(-c2ccc3ncnc(-c4cccc(C(=O)N5CCN(C)CC5)c4)c3c2)cc1S(=O)(=O)N1CCCC1` [22′, (3-{6-[4-Methoxy-3-(pyrrolidine-1-sulfonyl)-phenyl]-quinazolin-4-yl}-phenyl)-(4-methyl-piperazin-1-yl)-methanone]: the figures for the IC50 against PI3K delta and against PI3K alpha were 11.5 nM and 790 nM, respectively.
